Source: patent US8575094B2, “Use of type-B lantibiotic-based compounds having antimicrobial activity” (Novacta Biosystems Limited, priority 2007, dated 2013)
Values after ≈ are worked out from the molar mass of the structure shown. Like-named read-outs stand apart in the source and are kept apart here.

Legend:
[1] = Stability in Simulated Gastric Fluid (SGF), HPLC; assay type: in vitro ADME; conditions: 37° C.
Excerpt: (§1) The preferred method of dosage for the treatment of C. difficile infections is via the oral route of administration. […] Whilst the oral absorption of peptides and related substances of a molecular weight >1,000 Daltons is generally low, metabolism through peptidase enzymes is generally rapid and indeed forms an essential part of the normal digestion of food. The susceptibility of peptides towards enzymatic digestion in the stomach and intestine can reliably be estimated in vitro by measuring their stability in Simulated Gastric Fluid USP ([…], pepsin in saline, pH 1.2) and Simulated Intestinal Fluid USP (SIF, pancreatin in aqueous potassium dihydrogen phosphate, pH 6.8).
(§2) Nisin and mersacidin were tested for their susceptibility towards enzymatic digestion in the stomach and intestine. The SGF and SIF were based on the standard USP solutions for simulated gastric and simulated intestinal fluids and their activity confirmed against Bovine Serum Albumin (Hilger et al, 2001). The compounds were incubated in SGF or SIF at 37° C. and their concentrations quantified by analytical HPLC (UV detection at 210 nm). The potential degradation of each compound was also monitored qualitatively by measuring in vitro antibacterial activity against Micrococcus luteus.

[2] = rat, 100 mg/kg oral
Experimental: Male Sprague-Dawley rats were dosed with compound VII at 100 mg/kg via the oral route. Faeces and urine were collected over a 48 h period in two batches (24 h and 48 h post dose). Blood samples were taken at various time points for the first 24 h.

[3] = test system: C. difficile 630; conditions: hamster, three times daily at 50 mg/kg/day for 5 days, groups of 6
Experimental: The in vivo efficacy of compound VII in the treatment of C. difficile infections was evaluated in the clindamycin-induced cecitis model in hamster (FIG. 4). Groups of 6 animals were given a subcutaneous dose of 10 mg/kg clindamycin phosphate. 24 hours later, the animals received oral inocula of ˜10^4 spores of C. difficile 630, prepared by heating overnight BHI culture fluids to 56° C. for 10 min and recovering spores by centrifugation and re-suspension of the pellet in an equal volume of PBS.

[4] = Stability in Simulated Intestinal Fluid (SIF), HPLC; assay type: in vitro ADME; conditions: 37° C.
Excerpt: as §1, §2

[5] = test system: C. difficile strain VPI 10463; assay type: in vivo; conditions: hamster, three times daily at 50 mg/kg/day, 5-day dosing period
Experimental: The in vivo efficacy of two type B Lantibiotics in the treatment of C. difficile infections was evaluated in the standard animal model for CDAD: clindamycin-induced cecitis in hamster (FIG. 3). Four groups of six animals were dosed orally with approximately 10^7 cells of C. difficile strain VPI 10463 and 24 hours later with a subcutaneous dose of 10 mg/kg clindamycin phosphate.

[6] = test system: Micrococcus luteus; assay: In vitro antibacterial activity against Micrococcus luteus during SGF/SIF incubation; assay type: cell-based; conditions: incubation in SGF or SIF at 37° C.
Experimental: as §2

[7] = test system: C. difficile spores; assay: Sporicidal activity: viable counts of C. difficile spores exposed to antibiotics; assay type: cell-based; conditions: for Viable counts of C. difficile spores: antibiotic at 100 µg/ml
Excerpt: An agent capable of killing, or preventing the successful germination of C. difficile spores would therefore be of considerable interest. To determine the effects of type B lantibiotics on C. difficile spores, suspensions of spores were exposed to antibiotics ([…]) and aliquots were taken at appropriate time points. The spores in each aliquot were filtered off and plated out on to Brazier's agar.

[8] = test system: Bifidobacterium longum NCTC 11818
[9] = test system: E. faecium
[10] = test system: E. coli
[11] = test system: Bacteroides fragilis NCTC 9343
[12] = test system: Bifidobacterium adolescentis NCTC 11814
[13] = test system: Clostridium difficile; assay: microbe, parasite or virus in culture; assay type: cell-based; conditions: for MIC: Clostridioides difficile, read-out: Minimal Inhibitory Concentration (MIC)
Excerpt: Compounds I to VII were screened against twelve clinical isolates of Clostridium difficile.
In addition, compounds L to LIII were screened against […] isolates of Clostridium difficile.

[14] = test system: Bacteroides thetaiotaomicron NCTC 10582

CC[C@H](C)[C@@H]1NC(=O)[C@@H]2NC(=O)[C@H](CC(C)C)NC(=O)[C@H](NC(=O)[C@@H]3CSC[C@@H](N)C(=O)N[C@@H](CO)C(=O)NCC(=O)N[C@@H](Cc4c[nH]c5ccccc45)C(=O)N[C@@H](C(C)C)C(=O)N3)[C@H](C)SC[C@H](NC(=O)[C@H](CCC(=O)O)NC1=O)C(=O)NCC(=O)N[C@H]1C(=O)N[C@@H](CC(C)C)C(=O)N[C@@H](C(C)C)C(=O)N[C@@H](CS[C@H]2C)C(=O)N[C@@H](C)C(=O)N[C@H](C(=O)NCCO)CS[C@H]1C [Compound VII, Deoxy-actagardine B N-[2-ethanolamine] monocarboxamide]
Stability (degradation) in Simulated Gastric Fluid [1]: None of the compounds showed appreciable degradation | Material recovered from plasma [2]: No material was recovered | Material recovered from urine ([2]; urine collected over 48 h): No material was recovered | Survival of infected animals [3]: all 6 of the infected mice survived

CC[C@H](C)[C@@H]1NC(=O)[C@H](C(C)C)NC(=O)[C@@H]2NC(=O)CNC(=O)[C@@H]3CS[C@@H](C)[C@@H](NC(=O)[C@@H]4CSC[C@@H](N)C(=O)N[C@@H](CO)C(=O)NCC(=O)N[C@@H](Cc5c[nH]c6ccccc56)C(=O)N[C@@H](C(C)C)C(=O)N4)C(=O)N[C@@H](CC(C)C)C(=O)N[C@@H](C(=O)N[C@@H]([C@@H](C)CC)C(=O)N[C@@H](CCC(=O)O)C(=O)N3)[C@H](C)SC[C@H](NC1=O)C(=O)N[C@@H](C)C(=O)N[C@H](C(=O)NCCO)C[S+]([O-])[C@H]2C (stereo partly shown) [Compound VI, Actagardine N-[2-ethanolamine] monocarboxamide]
Stability (degradation) in Simulated Intestinal Fluid [4]: essentially stable | Stability (degradation) in Simulated Gastric Fluid [1]: None of the compounds showed appreciable degradation | Survival of infected animals [5]: survived for the duration of the entire 5-day dosing period

C=C1NC(=O)[C@@H]2NC(=O)[C@H](CC(C)C)NC(=O)[C@H](NC(=O)[C@@H]3CS[C@@H](C)[C@@H](NC(=O)[C@H](Cc4ccccc4)NC(=O)[C@@H]4NC(=O)[C@@H](N)CS[C@H]4C)C(=O)N[C@@H](CC(C)C)C(=O)N4CCC[C@H]4C(=O)NCC(=O)NCC(=O)NCC(=O)NCC(=O)N[C@@H](C(C)C)C(=O)N3)[C@H](C)SC[C@H](NC(=O)[C@H](CCC(=O)O)NC1=O)C(=O)N[C@@H]([C@@H](C)CC)C(=O)N/C=C\S[C@H]2C [Compound I, Mersacidin]
Stability (degradation) in Simulated Intestinal Fluid [4]: essentially stable | Stability (degradation) in Simulated Gastric Fluid [1]: None of the compounds showed appreciable degradation | In vitro activity against M. luteus during the course of the experiment [6]: remained unaltered | Effect on C. difficile spore viability / germination [7]: inactivate or prevent C. difficile spores from germinating | Viable counts of C. difficile spores ([7]; time 0 h): 177 | Viable counts of C. difficile spores ([7]; time 4 h): 0 | Viable counts of C. difficile spores ([7]; time 8 h): 0 | Viable counts of C. difficile spores ([7]; time 24 h): 0

C=C1NC(=O)[C@@H]2NC(=O)[C@H](CC(C)C)NC(=O)[C@H](NC(=O)[C@@H]3CS[C@@H](C)[C@@H](NC(=O)[C@H](Cc4c[nH]c5ccccc45)NC(=O)[C@@H]4NC(=O)[C@@H](N)CS[C@H]4C)C(=O)N[C@@H](CC(C)C)C(=O)N4CCC[C@H]4C(=O)NCC(=O)NCC(=O)NCC(=O)NCC(=O)N[C@@H](C(C)C)C(=O)N3)[C@H](C)SC[C@H](NC(=O)[C@H](CCC(=O)O)NC1=O)C(=O)N[C@@H](C(C)CC)C(=O)N/C=C\S[C@H]2C (stereo partly shown) [Compound IV, F3W Mersacidin]
Minimal Inhibitory Concentration (MIC) [8]: 16 µg/mL | Minimal Inhibitory Concentration (MIC) [9]: 32 µg/mL | Minimal Inhibitory Concentration (MIC) [10]: >64 µg/mL | Survival of infected animals [5]: survived for the duration of the entire 5-day dosing period | Minimal Inhibitory Concentration (MIC) [11]: 32 µg/mL | Minimal Inhibitory Concentration (MIC) [12]: 32 µg/mL | Minimal Inhibitory Concentration (MIC) [13]: 2 µg/mL | Minimal Inhibitory Concentration (MIC) [14]: 16 µg/mL

Cc1ncc([N+](=O)[O-])n1CCO [Metronidazole]
MIC ([13]; C. difficile strain 027C): 0.25 µg/mL (≈ 1.46 µM) | MIC ([13]; C. difficile strain 27SM): 0.125 µg/mL (≈ 0.73 µM) | MIC ([13]; C. difficile strain 19126): 0.25 µg/mL (≈ 1.46 µM) | MIC ([13]; C. difficile strain 37779): 0.125 µg/mL (≈ 0.73 µM) | MIC ([13]; C. difficile strain B32): 0.125 µg/mL (≈ 0.73 µM) | MIC ([13]; C. difficile strain E4): 0.25 µg/mL (≈ 1.46 µM) | MIC ([13]; C. difficile strain E16): 8 µg/mL (≈ 46.7 µM) | MIC ([13]; C. difficile strain E101): 0.125 µg/mL (≈ 0.73 µM) | MIC ([13]; C. difficile strain P24): 0.25 µg/mL (≈ 1.46 µM) | MIC ([13]; C. difficile strain P49): 0.125 µg/mL (≈ 0.73 µM) | MIC ([13]; C. difficile strain P59): 0.25 µg/mL (≈ 1.46 µM) | MIC ([13]; C. difficile strain P62): 0.25 µg/mL (≈ 1.46 µM) | Effect on C. difficile spore viability / germination [7]: no significant effect on spore viability | Viable counts of C. difficile spores ([7]; time 0 h): 177 | Viable counts of C. difficile spores ([7]; time 4 h): 154 | Viable counts of C. difficile spores ([7]; time 8 h): 144 | Viable counts of C. difficile spores ([7]; time 24 h): 120
